PubChem BioAssay (NCI)
Where “and” joins values, the source holds several entries; their conditions need not be identical. Equal entries are not always repeated.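 Exposure lasted 48 hours, with cells grown in 96-well plates and compounds tested at five concentrations. GI50: concentration for 50% inhibition of growth. TGI marks complete inhibition of growth.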

How the values were obtained:
Experiment in all cases: DTP human tumour cell line panel, 48 h
DMS 114 small cell lung = test system: DMS 114 small cell lung
HOP-18 NSCLC = test system: HOP-18 NSCLC
KM20L2 colon = test system: KM20L2 colon
LXFL 529 NSCLC = test system: LXFL 529 NSCLC
RXF-631 renal = test system: RXF-631 renal
XF 498 CNS = test system: XF 498 CNS
HS 578T breast = test system: HS 578T breast
MDA-N = test system: MDA-N
T-47D breast = test system: T-47D breast

| Compound | TGI (DMS 114 small cell lung) | TGI (HOP-18 NSCLC) | TGI (KM20L2 colon) | TGI (LXFL 529 NSCLC) | TGI (RXF-631 renal) | TGI (XF 498 CNS) | TGI (HS 578T breast) | TGI (MDA-N) | TGI (T-47D breast) | GI50 (HS 578T breast) | GI50 (MDA-N) | GI50 (T-47D breast) | GI50 (DMS 114 small cell lung) | GI50 (HOP-18 NSCLC) | GI50 (KM20L2 colon) | GI50 (LXFL 529 NSCLC) | GI50 (RXF-631 renal) | GI50 (XF 498 CNS) |
| --- | --- | --- | --- | --- | --- | --- | --- | --- | --- | --- | --- | --- | --- | --- | --- | --- | --- | --- |
| COC(=O)c1cccc2cccc(C(=O)Nc3ccc(C)cc3C)c12 | > 100 µM | > 100 µM | > 100 µM | > 100 µM | > 100 µM | > 100 µM | – | – | – | – | – | – | – | – | – | – | – | – |
| COC(=O)c1cc(Br)c(Br)n1C | > 100 µM | > 100 µM | > 100 µM | > 100 µM | > 100 µM | > 100 µM | – | – | – | – | – | – | – | – | – | – | – | – |
| C=CCCCCCCCCC(=O)NS(=O)(=O)c1ccccc1 | > 100 µM | > 100 µM | > 100 µM | > 100 µM | > 100 µM | > 100 µM | – | – | – | – | – | – | – | – | – | – | – | – |
| Cc1ccc(N(C(=O)CC(=O)NN)C(=O)c2ccccc2Cl)cc1 | > 100 µM | > 100 µM | > 100 µM | > 100 µM | > 100 µM | > 100 µM | – | – | – | – | – | – | – | – | – | – | – | – |
| CN/N=C(/CCN1CCCC1)CC(c1ccccc1)c1c(O)c2ccccc2oc1=O (configuration not stated) | > 100 µM | > 100 µM | > 100 µM | > 100 µM | > 100 µM | > 100 µM | > 100 µM | > 100 µM | > 100 µM | – | – | – | – | – | – | – | – | – |
| CCC1(O)C(=O)OCc2c1cc1n(c2=O)Cc2cc3ccc(C=O)cc3nc2-1 (configuration not stated) | 20.5 µM | > 100 µM | > 50.3 µM | > 100 µM | 31.7 µM | 19.2 µM | 50 µM and > 100 µM | 23.7 µM and 36.4 µM | 3.31 µM and 8.72 µM | 27 µM | 3.9 µM | 0.412 µM | – | – | – | – | – | – |
| CC(=O)OC[C@]12CC[C@H]3[C@@H](C[C@H]4O[C@]45[C@@H](O)C=CC(=O)[C@]35C)[C@@H]1CC[C@@H]2[C@H](C)[C@H]1CC(C)=C(C)C(=O)O1 | 0.823 µM and 1.12 µM | 2.42 µM | 0.829 µM and 1.44 µM | 0.824 µM | 2.74 µM | 0.799 µM and 0.581 µM | – | – | – | – | – | – | 0.324 µM and 0.357 µM | 1.05 µM | 0.512 µM and 0.407 µM | 0.347 µM and 0.219 µM | 0.679 µM and 0.987 µM | 0.422 µM and 0.234 µM |
| COc1cc(OC(=O)c2c(O)cc(O)c(O)c2C)cc(C)c1C(=O)Oc1cc(C)c(C(=O)O)c(O)c1 | > 100 µM | > 100 µM | > 100 µM | > 100 µM | > 100 µM | > 100 µM | – | – | – | – | – | – | – | – | – | – | – | – |
| C[N+](C)(C)CC1CCCC(C[N+](C)(C)C)C1=O (configuration not stated) | 3.49 µM | 1 µM | 5.5 µM | 0.392 µM | 47.4 µM | 0.898 µM | 33.6 µM | 9.44 µM | 3.33 µM | – | – | – | – | – | – | – | – | – |
